Experimental data taken from patent US9758485B2, “Compounds for controlling arthropods” (priority 2013, dated 2017).
Where two headings read alike, the source gives them in different places.

Columns and labels:
[1] = test system: Lucilia cuprina; experiment: Lucilia cuprina test; format: in vivo; settings: application rate 100 ppm, L1 larvae in minced horsemeat, kill after 2 days
Description: (§1) Solvent: dimethyl sulphoxide
To produce an appropriate active ingredient formulation, 10 mg of active ingredient are mixed with 0.5 ml of dimethyl sulphoxide, and the concentrate is diluted with water to the desired concentration.
About 20 L1 larvae of the Australian sheep blowfly (Lucilia cuprina) are transferred into a test vessel containing minced horsemeat and the active ingredient preparation of the desired concentration.
After 2 days, the kill in % is determined. 100% means that all the larvae have been killed; 0% means that none of the larvae have been killed.

[2] = logP determination by HPLC on a reversed-phase column (C18), EEC Directive 79/831 Annex V.A8; format: physicochemical; settings: for logP^a): HPLC-MS method a), Table I-T3
[3] = test system: Boophilus microplus; experiment: Boophilus microplus - injection test; format: in vivo; settings: application rate 20 μg/animal; injected into engorged adult female ticks; laying of fertile eggs, after 7 days
Description: Boophilus microplus—Injection Test
as §1
To produce an appropriate active ingredient formulation, 10 mg of active ingredient are mixed with 0.5 ml of solvent and the concentrate is diluted with solvent to the desired concentration.
1 μl of the active ingredient solution is injected into the abdomen of 5 engorged adult female cattle ticks (Boophilus microplus). The animals are transferred into dishes and kept in a climate-controlled room.
Efficacy is assessed after 7 days by laying of fertile eggs. Eggs which are not visibly fertile are stored in a climate-controlled cabinet until the larvae hatch after about 42 days. An efficacy of 100% means that none of the ticks has laid any fertile eggs; 0% means that all the eggs are fertile.

[4] = test system: Ctenocephalides felis; experiment: Ctenocephalides felis - oral test; format: in vivo; settings: application rate 100 ppm in citrated cattle blood; adult fleas; kill after 2 days
Description: Ctenocephalides felis—Oral Test
as §1
For the purpose of producing an appropriate active ingredient formulation, 10 mg of active ingredient are mixed with 0.5 ml of dimethyl sulphoxide. Dilution with citrated cattle blood gives the desired concentration.
About 20 unfed adult cat fleas (Ctenocephalides felis) are placed into a chamber which is closed at the top and bottom with gauze. A metal cylinder whose bottom end is closed with parafilm is placed onto the chamber. The cylinder contains the blood/active ingredient preparation, which can be imbibed by the fleas through the parafilm membrane.
After 2 days, the kill in % is determined. 100% means that all of the fleas have been killed; 0% means that none of the fleas have been killed.

[5] = reversed-phase HPLC column (C18), HPLC, reversed-phase C18, acetonitrile/water with formic acid, 55° C., read-out: logP
[6] = reversed-phase HPLC column (C18), HPLC-MS method a), reversed-phase column (C18); read-out: logP^a)
[7] = reversed-phase HPLC column (C18), HPLC-MS, reversed-phase column (C18), read-out: log P
[8] = HPLC-MS, reversed-phase column (C18)
[9] = HPLC, reversed-phase C18, acetonitrile/water with formic acid, 55° C.
[10] = HPLC on reversed-phase column (C18)

Work on `Cc1cc(C(F)(C(F)(F)F)C(F)(F)F)cc(C)c1-n1cc(-c2ncc(Cl)c(C(=O)NC3CC3)n2)cn1` [I-T3-121, 5-chloro-N-cyclopropyl-2-[1-[2,6-dimethyl-4-[1,2,2,2-tetrafluoro-1-(trifluoromethyl)ethyl]phenyl]pyrazol-4-yl]pyrimidine-4-carboxamide] yielded a pest or weed control at 100 ppm ([1]; Lucilia cuprina, 48 h, read-out: efficacy) of 80%, a chromatographic logP [2, 5] of 4.5 and a chromatographic logP [2, 6] of 4.5. The chromatographic logP [2, 7] was 4.5.
With `CCc1cc(C(F)(C(F)(F)F)C(F)(F)F)ccc1-n1cc(-c2cccc(C(=O)NC3CC3)c2F)cn1` [I-T3-75] the efficacy [1] was 80%, the “logP^a)” value [2] was 4.7 and the efficacy [3] was 90%.
In the case of `Cc1cc(C(F)(C(F)(F)F)C(F)(F)F)cc(C)c1-n1cc(-c2cc(C(=O)NC3(C#N)CC3)ccc2F)cn1` [I-T3-19], the efficacy [4] is reported as 95%, the “logP^a)” value [2] is reported as 4.3 and the efficacy [3] is reported as 100%.
In the case of `Cc1cc(C(F)(C(F)(F)F)C(F)(F)F)cc(C)c1-n1cc(-c2cc(C(=O)NC3CC3)ccc2F)cn1` [I-T3-13], the efficacy [4] is reported as 80%, the “logP^a)” value [2] is reported as 4.5 and the efficacy [3] is reported as 100%.
For `Cc1cc(C(F)(C(F)(F)F)C(F)(F)F)cc(C)c1-n1cc(-c2cc(C(=O)NC3CC3)c(F)cc2Cl)cn1` [I-T3-11], the efficacy [4] was 95%, the “logP^a)” value [2] was 4.9 and the efficacy [3] was 100%.
With `Cc1cc(C(F)(C(F)(F)F)C(F)(F)F)cc(C)c1-c1ccn(-c2ccc(Cl)c(C(=O)NC3(C#N)CC3)c2)n1` [I-T2-2] the efficacy [3] was 100%.
With `O=C(NC1CC1)c1cc(-c2cnn(-c3c(Cl)cc(C(F)(C(F)(F)F)C(F)(F)F)cc3Cl)c2)cnc1N1CCCC1` [I-T3-135] the efficacy [4] was 100% and the “log P” value [2, 8] was 4.3.
In the case of `Cc1cc(C(F)(C(F)(F)F)C(F)(F)F)cc(C)c1-n1cc(-c2cnc(C3CC3)c(C(=O)N(C)C3CC3)c2)cn1` [I-T3-142], the “log P” value [2, 8] is reported as 4.6 and the efficacy [3] is reported as 100%.
For `CCSc1cc(C(F)(F)F)cc(Cl)c1-n1cc(-c2ccc(Cl)c(C(=O)NC3(C#N)CC3)c2)cn1` [I-T3-170], the “log P” value [2, 8] was 3.7.
In the case of `Cc1ccc(C(=O)NC2CC2)cc1-c1cnn(-c2c(C)cc(C(F)(C(F)(F)F)C(F)(F)F)cc2C)c1` [I-T3-16], the efficacy [4] is reported as 80% and the “logP^a)” value [2] is reported as 4.4.
With `CCS(=O)(=O)c1cc(C(F)(F)F)cc(C#N)c1-n1cc(-c2ccc(Cl)c(C(=O)NC3CC3)c2)cn1` [I-T3-180] the “log P” value [2, 8] was 2.8.
With `CCSc1cc(C(F)(F)F)cc(C#N)c1-n1cc(-c2ccc(Cl)c(C(=O)NC3(C#N)CC3)c2)cn1` [I-T3-177] the “log P” value [2, 8] was 3.4.
In the case of `CN(C(=O)c1cc(-c2ccn(-c3c(Cl)cc(C(F)(C(F)(F)F)C(F)(F)F)cc3Cl)c2)cnc1Cl)C1(C#N)CC1` [I-T46-6], the logP [2, 9] is reported as 4.8.
For `CN(C(=O)c1cc(-c2cnn(-c3c(Cl)cc(C(O)(C(F)(F)F)C(F)(F)F)cc3Cl)c2)cnc1Cl)C1CC1` [I-T3-220], the “log P” value [2, 10] was 3.4.
For `O=C(NC1CC1)c1cc(-c2cnn(-c3c(Cl)cc(C(F)(C(F)(F)F)C(F)(F)F)cc3C(F)F)c2)ccc1Cl` [I-T3-193], the “log P” value [2, 10] was 4.4.
With `N#CC1(NC(=O)c2cc(-c3cnn(-c4ncc(C(F)(C(F)(F)F)C(F)(F)F)cc4SCC(F)(F)F)c3)ccc2Cl)CC1` [I-T3-171] the “log P” value [2, 8] was 4.5.
In the case of `O=C(NC1CC1)c1cc(-c2cnn(-c3c(Cl)cc(C(F)(C(F)(F)F)C(F)(F)F)cc3OC(F)F)c2)ccc1Cl` [I-T3-214], the “log P” value [2, 10] is reported as 4.3.
With `CCSc1cc(C(F)(F)F)cc(Cl)c1-n1cc(-c2ccc(Cl)c(C(=O)NC3CC3)c2)cn1` [I-T3-172] the “log P” value [2, 8] was 3.9.
In the case of `Cc1cc(C(F)(C(F)(F)F)C(F)(F)F)cc(C)c1-n1cc(-c2ccc(Cl)c(C(=O)NCC(=O)NCC(F)(F)F)c2)cn1` [I-T3-6], the efficacy [1] is reported as 100%, the “logP^a)” value [2] is reported as 4.1 and the efficacy [3] is reported as 100%.
In the case of `NC(=S)C1(NC(=O)c2cc(-c3cnn(-c4c(Cl)cc(C(F)(C(F)(F)F)C(F)(F)F)cc4C(F)(F)F)c3)cnc2Cl)CC1` [I-T3-159], the “log P” value [2, 8] is reported as 3.8.
For `CN(C(=O)c1cc(-c2cnn(-c3c(I)cc(C(F)(C(F)(F)F)C(F)(F)F)cc3C(F)(F)F)c2)ccc1Cl)C1CC1` [I-T3-229], the “log P” value [2, 10] was 5.1.
With `N#CC1(NC(=O)c2cc(-c3cnn(-c4c(Cl)cc(C(F)(C(F)(F)F)C(F)(F)F)cc4OC(F)F)c3)ccc2Cl)CC1` [I-T3-215] the “log P” value [2, 10] was 4.1.
In the case of `N#CC1(NC(=O)c2cc(-c3cnn(-c4c(Cl)cc(C(F)(F)F)cc4[N+](=O)[O-])c3)ccc2Cl)CC1` [I-T3-169], the “log P” value [2, 8] is reported as 3.2.
For `CC[S+]([O-])c1cc(C(F)(F)F)cc(C#N)c1-n1cc(-c2ccc(Cl)c(C(=O)NC3CC3)c2)cn1` (stereo not drawn) [I-T3-181], the “log P” value [2, 8] was 2.7.
With `Cc1cc(C(F)(C(F)(F)F)C(F)(F)F)cc(C)c1-n1ccc(-c2ccc(Cl)c(C(=O)NC3(C#N)CC3)c2)c1` [I-T46-1] the logP [2, 9] was 4.90.
In the case of `CN(C(=O)c1cc(-c2cnn(-c3ccc(C(F)(C(F)(F)F)C(F)(F)F)cc3C(F)(F)F)c2)ccc1Cl)C1CC1` [I-T3-134], the “log P” value [2, 8] is reported as 4.9.
`CC[S+]([O-])c1cc(C(F)(C(F)(F)F)C(F)(F)F)cnc1-n1cc(-c2ccc(Cl)c(C(=O)NC3CC3)c2)cn1` (stereo not drawn) [I-T3-157, 2-Chloro-N-cyclopropyl-5-{1-[3-(ethylsulphinyl)-5-(1,1,1,2,3,3,3-heptafluoropropan-2-yl)pyridin-2-yl]-1H-pyrazol-4-yl}benzamide] showed a chromatographic logP [2, 5] of 3.79, a chromatographic logP [2, 6] of 3.8 and a chromatographic logP [2, 7] of 3.8.
With `CC[S+]([O-])c1cc(C(F)(C(F)(F)F)C(F)(F)F)cc(Cl)c1-n1cc(-c2ccc(Cl)c(C(=O)NC3(C#N)CC3)c2)cn1` (stereo not drawn) [I-T3-195] the “log P” value [2, 10] was 3.8.
In the case of `CCOc1cc(C(F)(C(F)(F)F)C(F)(F)F)cc(OCC)c1-n1cc(-c2cnc(Cl)c(C(=O)N(C)C3CC3)c2)cn1` [I-T3-211], the “log P” value [2, 10] is reported as 4.7.
In the case of `O=C(NC1CC1)c1cc(-c2cnn(-c3c(F)cc(C(F)(F)F)cc3Cl)c2)ccc1Cl` [I-T3-186], the “log P” value [2, 10] is reported as 3.6.
For `CCSc1cc(C(F)(C(F)(F)F)C(F)(F)F)cc(SCC)c1-n1cc(-c2ccc(Cl)c(C(=O)NC3(C#N)CC3)c2)cn1` [I-T3-191], the “log P” value [2, 10] was 4.7.
With `CSc1cc(C(F)(C(F)(F)F)C(F)(F)F)cnc1-n1cc(-c2ccc(Cl)c(C(=O)NC3(C#N)CC3)c2)cn1` [I-T3-166] the “log P” value [2, 8] was 4.3.
For `CCc1cc(C(F)(C(F)(F)F)C(F)(F)F)ccc1-n1cc(-c2cccc(C(=O)NC3(C#N)CC3)c2F)cn1` [I-T3-74], the efficacy [1] was 90%, the “logP^a)” value [2] was 4.5 and the efficacy [3] was 100%.
In the case of `CN(C(=O)c1cc(-c2cnn(-c3c(Cl)cc(C(F)(C(F)(F)F)C(F)(F)F)cc3OC(F)(F)F)c2)ccc1Cl)C1CC1` [I-T3-219], the “log P” value [2, 10] is reported as 5.1.
With `N#Cc1cc(C(F)(C(F)(F)F)C(F)(F)F)cc(Cl)c1-n1cc(-c2cnc(Cl)c(C(=O)NC3CC3)c2)cn1` [I-T3-205] the “log P” value [2, 10] was 3.5.
For `NC(=O)C1(NC(=O)c2cc(-c3cnn(-c4c(F)c(F)c(C(F)(F)F)c(F)c4F)c3)ccc2Cl)CC1` [I-T3-194], the “log P” value [2, 10] was 2.8.
With `CN(C(=O)c1cc(-c2cnn(-c3c(Cl)cc(C(F)(C(F)(F)F)C(F)(F)F)cc3OC(F)F)c2)cnc1Cl)C1CC1` [I-T3-217] the “log P” value [2, 10] was 4.2.
In the case of `CCSc1cc(C(F)(C(F)(F)F)C(F)(F)F)cc(Cl)c1-n1cc(-c2ccc(Cl)c(C(=O)NC3(C#N)CC3)c2)cn1` [I-T3-192], the “log P” value [2, 10] is reported as 4.5.
With `NNc1c(Cl)cc(C(O)(C(F)(F)F)C(F)(F)F)cc1Cl` [2-(3,5-dichloro-4-hydrazinophenyl)-1,1,1,3,3,3-hexafluoropropan-2-ol] the chromatographic logP [2, 5] was 1.92.
With `O=C(NC1CC1)c1cc(-c2cnn(-c3ncc(C(F)(C(F)(F)F)C(F)(F)F)cc3Cl)c2)ccc1Cl` [I-T3-152] the “log P” value [2, 8] was 4.1.
